# Earlier results, collected in US20090191293A1, “Composition for enhancing immunity and reducing inflammation related to infections” (IOMEDI DEVELOPMENT INTERNATIONAL, SRL, priority 2007, published 2009).
# How the values were obtained:
# [1] = tested on: NF-κB dependent signaling pathway; conditions: lipopolysaccharide-induced inflammation
# [2] = tested on: arachidonic acid inflammatory reactions
# [3] = tested on: LPS-Stimulated Monocytes/Macrophages
# NF-κB = conditions: treatment of mice
# [4] = tested on: intercellular adhesion molecule-1; conditions: activated by TNF-α
# [5] = tested on: nuclear factor kappa B (NF-κB); conditions: HL-60-derived neutrophilic cells
# [6] = daily supplementation, amounts greater than 100 mg
smiles,measurement,setting,value
"OC[C@H]1O[C@@H](Oc2cc3c(O)cc(O)cc3[o+]c2-c2ccc(O)c(O)c2)[C@H](O)[C@@H](O)[C@@H]1O [Example C3G, cyanidin-3-glucoside]",NF-κB dependent signaling pathway,[1],inhibit the NF-κB dependent signaling pathway
Oc1cc(O)c2c(c1)O[C@H](c1ccc(O)c(O)c1)[C@H](O)[C@H]2c1c(O)cc(O)c2c1O[C@H](c1ccc(O)c(O)c1)[C@H](O)C2 [Procyanidin B(2)],arachidonic acid inflammatory reactions,[2],strongly inhibit arachidonic acid inflammatory reactions
"CC1=C(/C=C/C(C)=C/C=C/C(C)=C/C(=O)O)C(C)(C)CCC1 [all trans-retinoic acid (atRA), all trans-retinoic acid]",production of IL-10,[3],"enhancing the production of the immune modulating cytokine, IL-10"
same,production of pro-inflammatory cytokines (IL-12 and TNF-α),[3],lower the production of pro-inflammatory cytokines
C=CCS[S+]([O-])CC=C (stereo not drawn) [allicin],TNF-α mediated T cell adhesion to extracellular matrix components and endothelial cells,T cell,inhibition of TNF-α mediated T cell adhesion
same,NF-κB binding to the nucleus,NF-κB,significantly reduced NF-κB binding to the nucleus
C=C1CC[C@@H]2[C@](C)(CO)[C@H](O)CC[C@@]2(C)[C@@H]1C/C=C1/C(=O)OC[C@H]1O [andrographolide],expression of intercellular adhesion molecule-1,[4],inhibit expression of intercellular adhesion molecule-1
same,binding of NF-κB to the DNA,[5],specifically affects the binding of nuclear factor kappa B (NF-κB) to the DNA
"O=C1O[C@H]([C@@H](O)CO)C(O)=C1O [ascorbic acid, L-ascorbic acid]","incidence, severity and integrated morbidity of the common cold",[6],"lowers the incidence, severity and integrated morbidity of the common cold"
